{"source": "patent EP4792818A1", "about": "“COMPOUND SUITABLE FOR EXTERNAL USE, AND PHARMACEUTICAL COMPOSITION” (EnKang Pharmaceuticals (Guangzhou), Ltd., priority 2023, dated 2025)", "key": {"A431 cells": {"system": "A431 cells", "experimental": "(§1) The experimental procedures were as follows: The cells were subcultured in a complete medium containing 10% FBS in an incubator at 37 °C with 5% CO2 and saturated humidity. The cell density was adjusted to (3-5) × 10^4 cells/mL using a complete medium containing 10% FBS. The cell suspension was added to the wells of a 96-well culture plate at 100 µL/well, and the plate was incubated in an incubator at 37 °C with 5% CO2 and saturated humidity overnight (for about 16-24 hrs). Various dose groups of the test substance and a solvent control group were set. On the next day, the original culture medium was discarded. Subsequently, 20% FBS-containing complete medium was added at 100 µL/well, and the test substance or solvent in FBS-free medium was then added at 100 µL/well, resulting in a final FBS concentration of 10%. Meanwhile, a negative control group was set: each well received 100 µL of 20% FBS-containing complete medium + 100 µL of incomplete medium containing cells, resulting in a final FBS concentration of 10%. A zero adjustment group (background) was also set: 200 µL of the culture medium alone (100 µL of 20% FBS-containing complete medium + 100 µL of incomplete medium), without drugs and cells. For each concentration group, four replicate wells were set.\n(§2) After incubation for 48 hrs under the experimental conditions, the supernatant was discarded, and 110 µL of CCK-8 working solution (100 µL of 10% FBS-containing complete medium and 10 µL of CCK-8 solution) were added to each well. The cells were further incubated for 4 hrs, and the optical density value at a wavelength of 450 nm (A450) was then measured for each well using a microplate reader. The average value for the wells of each treatment group (T) was compared with the average value for the negative control wells (C). The percent inhibition rate of each concentration group was calculated using the following formula: [Inhibition rate = (1 - T/C) × 100%], and the half-maximal inhibitory concentration (IC50) was calculated."}, "SCL-1 cells [1]": {"system": "SCL-1 cells", "experimental": "as §1, §2"}, "COLO-16 cells [2]": {"system": "COLO-16 cells", "experimental": "as §1, §2"}, "[3]": {"conditions": "20 °C"}, "SCL-1 cells [4]": {"system": "SCL-1 cells", "conditions": "SCL-1 tumor-bearing nude mice, 21 days", "experimental": "(§3) Quarantine-qualified male BALB/c-nu nude mice weighing 13.4-20.5 g were each inoculated with 0.2 mL of SCL-1 cells in logarithmic growth phase at 3 x 10^6 cells/mL (with Matrigel and cell suspension mixed in a ratio of 1:2) in the right axilla. […] The drug was kept in contact with the skin for 4 hrs per administration, and the treatment was given to each group for three consecutive weeks. During the treatment period, the long diameter (a) and short diameter (b) of the tumors were measured using a vernier caliper every 3 days. Then, the tumor volume (TV), relative tumor volume (RTV), and relative tumor proliferation rate (T/C, %) were calculated. After the final administration, the tumor tissues were dissected out and weighed to calculate the tumor growth inhibition rates."}, "[5]": {"system": "TE.354.T cells (human cutaneous basal cell carcinoma)", "experimental": "The experimental procedures were as follows: The cells were subcultured in a complete medium containing 10% FBS in an incubator at 37 °C with 5% CO2 and saturated humidity. The cell density was adjusted to (3-5) × 10^4 cells/mL using a complete medium containing 10% FBS. The cell suspension was added to the wells of a 96-well culture plate at 100 µL/well, and the plate was incubated in an incubator at 37 °C with 5% CO2 and saturated humidity overnight (for about 16-24 hrs). Various dose groups of the test substance and a solvent control group were set. On the next day, the original culture medium was discarded. Subsequently, 20% FBS-containing complete medium was added at 100 µL/well, and the test substance or solvent in FBS-free medium was then added at 100 µL/well, resulting in a final FBS concentration of 10%. Meanwhile, a negative control group was set: each well received 100 µL of 20% FBS-containing complete medium + 100 µL of incomplete medium containing cells, resulting in a final FBS concentration of 10%. A zero adjustment group (background) was also set: 200 µL of the culture medium alone (100 µL of 20% FBS-containing complete medium + 100 µL of incomplete medium), without drugs and cells. For each concentration group, four replicate wells were set. […]"}, "[6]": {"conditions": "for Labeled amount (%) / Related substances (%) Impurity A / Related substances (%) Impurity B / Related substances (%) Impurity C / Related substances (%) Impurity D / Related substances (%) Impurity E / Related substances (%) Impurity F / Related substances (%) RRT0.73 / Related substances (%) RRT1.10 / Related substances (%) RRT2.18 / Related substances (%) Total impurities: mixed with CMC-Na 1:5"}, "COLO-16 cells [7]": {"system": "COLO-16 cells", "conditions": "COLO-16 tumor-bearing nude mice, 21 days", "experimental": "as §3, with “weighing 13.7-21.1” for “weighing 13.4-20.5”, “of COLO-16” for “of SCL-1”, “at 6.7” for “at 3”, “cells/mL” for “cells/mL (with Matrigel and cell suspension mixed in a ratio of 1:2)”"}, "[8]": {"conditions": "topical gel; for plasma drug concentrations above the LLOQ: 0.008-0.06 mg/cm^2, LLOQ 0.02 ng/mL"}, "[9]": {"system": "human liver cancer HepG2 cells", "conditions": "documented in CN 104736157 A; cited from earlier work"}, "[10]": {"conditions": "High humidity for 10 days (RH 90%±5%)"}, "[11]": {"conditions": "High temperature for 10 days (60 °C±2 °C)"}}, "note": "Like-named read-outs stand apart in the source and are kept apart here.", "data": [{"compound": "CO[C@H]1[C@H](O)[C@H](O[C@H]2CC[C@@]3(C)[C@H](CC[C@@H]4[C@@H]3CC[C@]3(C)[C@@H](C5=CC(=O)OC5)CC[C@]43O)C2)O[C@@H](C)[C@@H]1O", "note": "[17β-neriifolin]", "values": [{"measurement": "growth inhibitory effects", "setting": "A431 cells", "value": "strong growth inhibitory effects"}, {"measurement": "growth inhibitory effects", "setting": "SCL-1 cells [1]", "value": "strong growth inhibitory effects"}, {"measurement": "growth inhibitory effects", "setting": "COLO-16 cells [2]", "value": "strong growth inhibitory effects"}, {"measurement": "Dissolution behavior", "setting": "[3]; Ethanol concentration 20 %, sample concentration 8 mg/g", "value": "dissolved"}, {"measurement": "Dissolution behavior", "setting": "[3]; Ethanol concentration 20 %, sample concentration 8 mg/g, listed as 17β-Neriifolin", "value": "Dissolved"}, {"measurement": "Dissolution behavior", "setting": "[3]; Ethanol concentration 45 %, sample concentration 20 mg/g", "value": "dissolved"}, {"measurement": "Dissolution behavior", "setting": "[3]; Ethanol concentration 45 %, sample concentration 20 mg/g, listed as 17β-Neriifolin", "value": "Dissolved"}, {"measurement": "Dissolution behavior", "setting": "[3]; Ethanol concentration 50 %, sample concentration 24 mg/g", "value": "Dissolved"}, {"measurement": "Dissolution behavior", "setting": "[3]; Ethanol concentration 66 %, sample concentration 32 mg/g", "value": "Dissolved"}, {"measurement": "Dissolution behavior", "setting": "[3]; Ethanol concentration 75 %, sample concentration 40 mg/g", "value": "Dissolved"}, {"measurement": "Dissolution behavior", "setting": "[3]; Ethanol concentration 100 %, sample concentration 50 mg/g", "value": "Dissolved"}, {"measurement": "anti-tumor effect compared with Imiquimod cream (50 mg/g)", "setting": "SCL-1 cells [4]", "value": "significantly superior to that of Imiquimod cream"}, {"measurement": "growth inhibitory effects", "setting": "[5]", "value": "strong growth inhibitory effects"}, {"measurement": "impact of high temperature, high humidity, and illumination on the related substances and drug content", "setting": "[6]; combined with sodium carboxymethyl cellulose 1:5, 10 days", "value": "no impact"}, {"measurement": "stability of the combination with sodium carboxymethyl cellulose compared with the combination with Carbomer", "setting": "[6]; mass ratio 1:5, 10 days, high temperature, high humidity, illumination", "value": "significantly superior"}, {"measurement": "Labeled amount (%)", "setting": "[6]; 0 days", "value": 99.56, "unit": "%"}, {"measurement": "Related substances (%) Impurity A", "setting": "[6]; 0 days", "value": 0.17, "unit": "%"}, {"measurement": "Related substances (%) Impurity B", "setting": "[6]; 0 days", "value": 0.36, "unit": "%"}, {"measurement": "Related substances (%) Impurity C", "setting": "[6]; 0 days", "value": 0.25, "unit": "%"}, {"measurement": "Related substances (%) Impurity D", "setting": "[6]; 0 days", "value": 0.13, "unit": "%"}, {"measurement": "Related substances (%) Impurity E", "setting": "[6]; 0 days", "value": 0.15, "unit": "%"}, {"measurement": "Related substances (%) Impurity F", "setting": "[6]; 0 days", "value": 0.14, "unit": "%"}, {"measurement": "Related substances (%) RRT0.73", "setting": "[6]; 0 days", "value": 0.05, "unit": "%"}, {"measurement": "Related substances (%) RRT1.10", "setting": "[6]; 0 days", "value": 0.04, "unit": "%"}, {"measurement": "Related substances (%) RRT2.18", "setting": "[6]; 0 days", "value": 0.03, "unit": "%"}, {"measurement": "Related substances (%) Total impurities", "setting": "[6]; 0 days", "value": 1.32, "unit": "%"}, {"measurement": "Labeled amount (%)", "setting": "[6]; [10]", "value": 99.42, "unit": "%"}, {"measurement": "Related substances (%) Impurity A", "setting": "[6]; [10]", "value": 0.17, "unit": "%"}, {"measurement": "Related substances (%) Impurity B", "setting": "[6]; [10]", "value": 0.36, "unit": "%"}, {"measurement": "Related substances (%) Impurity C", "setting": "[6]; [10]", "value": 0.25, "unit": "%"}, {"measurement": "Related substances (%) Impurity D", "setting": "[6]; [10]", "value": 0.13, "unit": "%"}, {"measurement": "Related substances (%) Impurity E", "setting": "[6]; [10]", "value": 0.15, "unit": "%"}, {"measurement": "Related substances (%) Impurity F", "setting": "[6]; [10]", "value": 0.14, "unit": "%"}, {"measurement": "Related substances (%) RRT0.73", "setting": "[6]; [10]", "value": 0.05, "unit": "%"}, {"measurement": "Related substances (%) RRT1.10", "setting": "[6]; [10]", "value": 0.04, "unit": "%"}, {"measurement": "Related substances (%) RRT2.18", "setting": "[6]; [10]", "value": 0.03, "unit": "%"}, {"measurement": "Related substances (%) Total impurities", "setting": "[6]; [10]", "value": 1.32, "unit": "%"}, {"measurement": "Labeled amount (%)", "setting": "[6]; [11]", "value": 100.95, "unit": "%"}, {"measurement": "Related substances (%) Impurity A", "setting": "[6]; [11]", "value": 0.17, "unit": "%"}, {"measurement": "Related substances (%) Impurity B", "setting": "[6]; [11]", "value": 0.36, "unit": "%"}, {"measurement": "Related substances (%) Impurity C", "setting": "[6]; [11]", "value": 0.25, "unit": "%"}, {"measurement": "Related substances (%) Impurity D", "setting": "[6]; [11]", "value": 0.13, "unit": "%"}, {"measurement": "Related substances (%) Impurity E", "setting": "[6]; [11]", "value": 0.15, "unit": "%"}, {"measurement": "Related substances (%) Impurity F", "setting": "[6]; [11]", "value": 0.14, "unit": "%"}, {"measurement": "Related substances (%) RRT0.73", "setting": "[6]; [11]", "value": 0.05, "unit": "%"}, {"measurement": "Related substances (%) RRT1.10", "setting": "[6]; [11]", "value": 0.04, "unit": "%"}, {"measurement": "Related substances (%) RRT2.18", "setting": "[6]; [11]", "value": 0.03, "unit": "%"}, {"measurement": "Related substances (%) Total impurities", "setting": "[6]; [11]", "value": 1.32, "unit": "%"}, {"measurement": "Labeled amount (%)", "setting": "[6]; Strong light for 10 days", "value": 99.96, "unit": "%"}, {"measurement": "Related substances (%) Impurity A", "setting": "[6]; Strong light for 10 days", "value": 0.17, "unit": "%"}, {"measurement": "Related substances (%) Impurity B", "setting": "[6]; Strong light for 10 days", "value": 0.36, "unit": "%"}, {"measurement": "Related substances (%) Impurity C", "setting": "[6]; Strong light for 10 days", "value": 0.25, "unit": "%"}, {"measurement": "Related substances (%) Impurity D", "setting": "[6]; Strong light for 10 days", "value": 0.13, "unit": "%"}, {"measurement": "Related substances (%) Impurity E", "setting": "[6]; Strong light for 10 days", "value": 0.15, "unit": "%"}, {"measurement": "Related substances (%) Impurity F", "setting": "[6]; Strong light for 10 days", "value": 0.14, "unit": "%"}, {"measurement": "Related substances (%) RRT0.73", "setting": "[6]; Strong light for 10 days", "value": 0.05, "unit": "%"}, {"measurement": "Related substances (%) RRT1.10", "setting": "[6]; Strong light for 10 days", "value": 0.04, "unit": "%"}, {"measurement": "Related substances (%) RRT2.18", "setting": "[6]; Strong light for 10 days", "value": 0.03, "unit": "%"}, {"measurement": "Related substances (%) Total impurities", "setting": "[6]; Strong light for 10 days", "value": 1.32, "unit": "%"}, {"measurement": "anti-tumor effect compared with Imiquimod cream (50 mg/g)", "setting": "COLO-16 cells [7]", "value": "significantly superior to that of Imiquimod cream"}, {"measurement": "plasma drug concentrations above the LLOQ", "setting": "[8]; four Australian subjects", "value": "0.021 to 0.101", "unit": "ng/mL"}, {"measurement": "plasma drug concentrations above the LLOQ", "setting": "[8]; seven Chinese subjects", "value": "0.022 to 0.106", "unit": "ng/mL"}, {"measurement": "dose dependence of systemic exposure", "setting": "[8]; 0.008-0.06 mg/cm^2 dose range", "value": "No dose-dependent increase"}, {"measurement": "cell cycle arrest and apoptosis", "setting": "[9]", "value": "induce cell cycle arrest and apoptosis"}]}]}
